Measured values published in patent US5830994A, “Peptide derivatives of alpha-MSH and their application” (Institut Europeen De Biologie Cellulaire, priority 1993, dated 1998).

How the values were obtained:
[1] = test system: Interleukin-1α; experiment: Inhibition of the synthesis of Interleukin 1 (IL1α) induced by LPS in mice, serum ELISA; format: in vivo, BALB/C mice
Protocol: Study of the immunosuppressive activity of the derivative compound 4 on the inhibition of the synthesis of Interleukin 1 "IL1" in mice.
The secretion of IL1 is induced by the parenteral administration of lipopolysaccharides "LPS" to BALB/C mice.
Compound 4 (P-IV) is dissolved in physiological saline. It is assayed quantitatively by spectrophotometry at 280 nm (assay of Tryptophan) which allows an accurate assay of "P-IV" in the solutions which are stored at -25° C.
Extracts of Escherichia Coli serotype 0127 - B8 -"Ref. SIGMA - L3137" are used at the concentration of 6 mg/ml in physiological saline.
BALB/C mice--females--5 weeks old, obtained from IFFA - CREDO subjected to a photoperiod of 12 hours of light per 24 hours water and feed ad libitum
the other based on a single treatment, consequently much more rapid, will serve for the control of the PIV activity ("DAYNES" technique).
The animals in the control batches receive an injection of 0.2 ml of physiological saline subcutaneously, the animals in the PIV batches receive an injection of the product at various dosages subcutaneously. This treatment takes place for 5 days.
Forty-eight hours after the treatment with PIV, a sublethal dose of LPS (1.2 mg in 0.2 ml of physiological saline) is injected intraperitoneally into each animal in the PIV batches and in the positive control batch.
One hundred and eighty minutes later, all the mice were punctured through the retroorbital sinuses on dry tubes. As soon as the blood coagulates, the clot is detached. The blood is centrifuged for 10 minutes at 1800 g at a temperature of 10° C.
40 μg of PIV in 0.2 ml of physiological saline--that is to say 200 μg/ml
25 Ag of PIV in 0.2 ml of physiological saline--that is to say 125 μg/ml
10 μg of PIV in 0.2 ml of physiological saline--that is to say 50 μg/ml
The animals in the control batches receive an injection of 0.2 ml of physiological saline intravenously.
The animals in the PIV batches receive an injection of the product at various dosages intravenously. (Caudal vein)
Immediately afterwards, a sublethal dose of LPS (1.2 mg years [sic] 0.2 ml of physiological saline) is injected intraperitoneally into each animal in the PIV batches and into the positive control batches.
One hundred and eighty minutes later, all the mice are punctured through the retroorbital sinuses on dry tubes. As soon as the blood coagulates, the clot is detached. The blood is centrifuged for 10 minutes at 1800 g at a temperature of 10° C. The sera once collected are frozen at -25° C.
The Interleukin-1α contained in these sera is assayed 24 hours after the sampling with the murine IL1α ELISA assay Kit (ref. 1900 GENZYME)
Rapid description of the Kit: the method used for this assay is of the sandwich type.
A first anti-murine IL1α monoclonal antibody is used
The samples are then deposited, then a second biotinylated anti-IL1α antibody is caused to react.
The coloured reaction uses tetramethylbenzidine (TMB)
The reading is made at 450 nm on a MULTISKAN MCC 340 MKII (TITERTEK) plate reader.

[2] = test system: PGE2 production by MRC5 fibroblasts stimulated by IL1; experiment: PGE2 production by fibroblasts stimulated by IL1 (RIA); format: cell-based, human; conditions: for % inhibition (PGE2) / PGE2: IL1:5 ng
Protocol: 2-1 Culture of embryonic pulmonary fibroplasts [sic] of human origin:
We chose to use the strain ATCC MRC5 maintained in the laboratory continuously and already tested by Cannon et al. (J. Immunol., 1986).
After subculturing, the fibroplasts [sic] are cultured in microwells (24-well plate of 2 cm2, Falcon). The innoculum is 30 000 cells per well; the nutrient medium used is composed of RPMI 1640 (90%) and of complement-free fetal calf serum (FCS, 10%). The medium is changed every two days until the cells become confluent.
The monocell layers thus obtained are washed and preincubated for 24 hours in fresh medium containing only 1% of FCS. […] After incubating for 20 minutes in the presence of these compounds, human recombinant IL1 (Tebu, France) at a concentration of 5, 2.5 or 0.5 ng/ml of medium is placed in contact with cells for 18 hours.
At the end of this incubation, the supernatants are collected and frozen at -80° C. until the analysis is carried out. The monocell layers are fixed with methanol.
The RIA assay is carried out according to the method described by Dray et al. (Europ. J. Invest. 1975). 3 series of experiments, in duplicate, were carried out for each concentration of product studied and for the controls. The results are expressed in pg/μg of DNA. The inhibitory effect is expressed in percentage relative to the controls.
In order to avoid any possible error due to the counting by optical microscopy, the DNA was assayed by a fluorimetric method according to the procedure described by Brunk et al. (Analytical Biochem., 1979).

Q: With “[(DL) Lip] His - D.homoPhe - Arg - Trp - NH2 [PIV]” as the substance, how does the “mean decreases in IL1α” value ([1]; 50 μg/ml, five studies) read?
A: 50%

Q: What about the “mean decreases in IL1α” value ([1]; 125 μg/ml, five studies) of the same substance?
A: 50%

Q: And the “mean decreases in IL1α” value ([1]; 200 μg/ml, five studies)?
A: 60%

Q: What about the “mean decreases in IL1α” value ([1]; all dosages, all the five studies) of the same substance?
A: ~55%

Q: And the “decrease in the synthesis of Interleukin-1α relative to the control” value ([1]; with the two methodologies used (SHEEHAN and DAYNES))?
A: at least 50%

Q: And the “% inhibition (PGE2)” value ([2]; 10^-4 M)?
A: 60%

Q: And the PGE2 ([2]; 10^-4 M)?
A: 2964 ± 184 pg/mg of DNA

Q: What about the “% inhibition (PGE2)” value ([2]; 10^-5 M) of the same substance?
A: 38%

Q: What about the PGE2 ([2]; 10^-5 M) of the same substance?
A: 4580 ± 230 pg/mg of DNA

Q: What about the “% inhibition (PGE2)” value ([2]; 10^-6 M) of the same substance?
A: 34%

Q: What about the PGE2 ([2]; 10^-6 M) of the same substance?
A: 4900 ± 340 pg/mg of DNA

Q: What about the “% inhibition (PGE2)” value ([2]; 10^-7 M) of the same substance?
A: 17%

Q: And the PGE2 ([2]; 10^-7 M)?
A: 6150 ± 365 pg/mg of DNA

Q: What about the “% inhibition (PGE2)” value ([2]; 10^-8 M) of the same substance?
A: 17%

Q: What about the PGE2 ([2]; 10^-8 M) of the same substance?
A: 6142 ± 255 pg/mg of DNA

Q: What about the “% inhibition (PGE2)” value ([2]; 10^-9 M) of the same substance?
A: 32%

Q: What about the PGE2 ([2]; 10^-9 M) of the same substance?
A: 5047 ± 279 pg/mg of DNA

Q: And the “inhibitory action on IL1-stimulated PGE2 production (in words)” value ([2]; overall)?
A: possess an inhibitory power
